Assay results as given in patent US7514446B2, “Pyrimidine compounds” (SmithKline Beecham Corporation, priority 2003, dated 2009).
Counter-ions that a name gives are not always drawn.

Tests used:
PLK1 kinase domain = biological target: T1, PLK1 kinase domain (Homo sapiens, UniProt P53350); assay: Assay for inhibition of PLK1 (SPA, 33P-ATP, His-tagged PLK kinase domain); type: biochemical; settings: 2 μM ATP, read-out: Ave pIC50 PLK Enzyme Inhibition (converted)
T1 construct: made in house; host or cells: baculovirus-infected T. ni insect cells
Method: I. Assay for Inhibition of PLK1
A. Preparation of 6× N-terminal His-tagged PLK Kinase Domain
6× N-terminal His-tagged PLK kinase domain (amino acids 21-346 preceded by […]) was prepared from baculovirus infected T. ni cells under polyhedrin promoter control. All procedures were performed at 4° C. Cells were lysed in 25 mM HEPES, 200 mM NaCl, 25 mM imidazole; pH 8.0. The homogenate was centrifuged at 14K rpm in a SLA-1500 rotor for 40 min and the supernatant filtered through a 1.2 micron filter. The supernatant was loaded onto a Nickel chelating Sepharose (Amersham Pharmacia) column and washed with 25 mM HEPES, 500 mM NaCl, 25 mM imidazole; pH 8.0. The column was then washed with a 16.6% B step where buffer B is 25 mM HEPES, 500 mM NaCl, 300 mM imidazole; pH 8.0. Protein was eluted using a 10-column volume linear gradient from 16.6% B to 100% B. Fractions containing PLK were determined by SDS-PAGE. PLK was concentrated using a 10 kDa molecular weight cutoff membrane and then loaded onto a Superdex 75 gel filtration (Amersham Pharmacia) column equilibrated in 25 mM HEPES, 1 mM DTT, 500 mM NaCl; pH 8.0. Fractions containing PLK were determined by SDS-PAGE. PLK was pooled, aliquoted and stored at −80° C. Samples were quality controlled using mass spectrometry.
B. Enzyme Activity+/−Inhibitors was Determined as Follows:
Compounds were added to the plate (1 μl in 100% DMSO). DMSO (2% final) and EDTA (55.5 mM final) were used as controls. Reaction Mix A is prepared as follows at 4° C.:
Reaction Mix A (substrate Mix): • 25 mM HEPES, pH 7.2 • 15 mM MgCl2 • 2 μM ATP • 0.1 μCi/well ^33P-γ ATP (10 Ci/mMol) • 2 μM substrate peptide (Biotin-Ahx-[…]) Reaction Mix B is prepared as follows at 4° C.:
Reaction Mix B (Enzyme Mix) • 25 mM HEPES, pH 7.2 • 15 mM MgCl2 • 0.15 mg/ml BSA • 2 mM DTT • 2-10 nM PLK1 kinase domain
Reaction Mix A (20 μl) is added per well. Reaction Mix B (20 μl) is added per well. Incubate 1.5 hrs. at RT. The enzymatic reaction is stopped with 175 μl of SPA/EDTA bead mix (29 mM EDTA, 2.5 mg/ml Streptavidin-coated SPA in Standard Dulbecco's PBS (without Mg^2+ and Ca^2+), 60 μM ATP). Plates are sealed spun (after a 1 hr incubation at RT) at 1,000×g for 7 min or settled overnight, then plates counted in Packard TopCount for 30 seconds/well.

[1] = tested on: Normal Human foreskin fibroblasts (HFF); assay: Methylene Blue Growth Inhibition Assay, HFF; type: cell-based; settings: 72 h, HFF cells, 3 days, read-out: MeB Cell Line IC50
Method: (§1) II. Methylene Blue Growth Inhibition Assay
(§2) Normal Human foreskin fibroblasts (HFF) and human colon (HCT116, RKO), lung (H460), prostate (PC3), and breast tumor (MCF7) cell lines were cultured in high glucose DMEM (Life Technologies) containing 10% fetal bovine serum (FBS) at 37° C. in a humidified 10% CO2, 90% air incubator. Cells were harvested using trypsin/EDTA, counted using a haemocytometer, and plated in 100 μl of the appropriate media, at the following densities, in a 96-well tissue culture plate (Falcon 3075): HFF 5,000 cells/well, HCT116 3,000 cells/well, RKO 2,500 cells/well, H460 2,000 cells/well, PC3 8,000 cells/well, MCF7 4,000 cells/well. The next day, compounds were diluted in DMEM containing 100 μg/ml gentamicin, at twice the final required concentration, from 10 mM stock solutions in DMSO. 100 μl/well of these dilutions were added to the 100 μl of media currently on the cell plates. Medium containing 0.6% DMSO was added to control wells. Compounds diluted in DMEM were added to all cell lines. The final concentration of DMSO in all wells was 0.3%. Cells were incubated at 37° C., 10% CO2 for 3 days. Medium was removed by aspiration. Cell biomass was estimated by staining cells with 90 μl per well methylene blue (Sigma M9140, 0.5% In 50:50 ethanol:water), and incubation at room temperature for at least 30 minutes. Stain was removed, and the plates rinsed under a gentle stream of water, and air-dried. To release stain from the cells 100 μl of solubilization solution was added (1% N-lauroyl sarcosine, Sodium salt, Sigma L5125, in PBS), and plates were shaken gently for about 30 minutes. Optical density at 620 nm was measured on a microplate reader. Percent inhibition of cell growth was calculated relative to vehicle treated control wells. Concentration of compound that inhibits 50% of cell growth (IC50) was interpolated using nonlinear regression (Levenberg-Marquardt) and the equation, y=Vmax*(1−(x/(K+x)))+Y2, where “K” was equal to the IC50. In Table 1, +=10->30 uM; ++=1-10 uM: +++=<1 uM.

[2] = tested on: HCT116 colon tumor cell line; assay: Methylene Blue Growth Inhibition Assay, HCT116; type: cell-based; settings: Homo sapiens, HCT-116, 72 h; HCT116 cells, 3 days; read-out: MeB Cell Line IC50
Method: as §1, §2

[3] = tested on: H460 lung tumor cell line; assay: Methylene Blue Growth Inhibition Assay, H460; type: cell-based; settings: Homo sapiens, NCI-H460, 72 h; H460 cells, 3 days; read-out: MeB Cell Line IC50
Method: as §1, §2

[4] = tested on: PC3 prostate tumor cell line; assay: Methylene Blue Growth Inhibition Assay, PC3; type: cell-based; settings: Homo sapiens, PC-3, 72 h; PC3 cells, 3 days; read-out: MeB Cell Line IC50
Method: as §1, §2

[5] = tested on: MCF7 breast tumor cell line; assay: Methylene Blue Growth Inhibition Assay, MCF7; type: cell-based; settings: Homo sapiens, 72 h; MCF7 cells, 3 days; read-out: MeB Cell Line IC50
Method: as §1, §2

[6] = tested on: RKO colon tumor cell line; assay: Methylene Blue Growth Inhibition Assay, RKO; type: cell-based; settings: Homo sapiens, 72 h; RKO cells, 3 days; read-out: MeB Cell Line IC50
Method: as §1, §2

T1 sequence (P53350 21-346): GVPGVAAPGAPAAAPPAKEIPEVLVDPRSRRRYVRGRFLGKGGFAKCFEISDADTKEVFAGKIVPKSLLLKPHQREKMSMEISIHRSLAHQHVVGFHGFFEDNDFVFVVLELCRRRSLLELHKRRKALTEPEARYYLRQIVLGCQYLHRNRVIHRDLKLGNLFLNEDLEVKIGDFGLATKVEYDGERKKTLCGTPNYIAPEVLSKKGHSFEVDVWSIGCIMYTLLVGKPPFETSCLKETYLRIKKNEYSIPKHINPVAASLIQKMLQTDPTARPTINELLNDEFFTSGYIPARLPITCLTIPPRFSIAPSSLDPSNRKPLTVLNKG

CC(=O)Nc1ccc(Nc2ncc(Br)c(Nc3ccccc3N3CCOCC3)n2)cc1 [Example 25, N-[4-({5-Bromo-4-[(2-morpholin-4-ylphenyl)amino]pyrimidin-2-yl}amino)phenyl]acetamide hydrochloride]
IC50 (PLK1 kinase domain): < 100 nM

CC(=O)Nc1ccc(Nc2ncc(Br)c(Nc3ccccc3C(C)=O)n2)cc1 [Example 24, N-[4-({4-[(2-Acetylphenyl)amino]-5-bromopyrimidin-2-yl}amino)phenyl]acetamide hydrochloride]
IC50 (PLK1 kinase domain): < 100 nM

COc1cc(Nc2ncc([N+](=O)[O-])c(Nc3ccccc3C(=O)NC(C)(C)C)n2)cc(OC)c1OC [Example 5, N-(tert-butyl)-2-({5-nitro-2-[(3,4,5-trimethoxyphenyl)amino]pyrimidin-4-yl}amino)benzamide hydrochloride]
IC50 [1]: 1000 to 10000 nM
IC50 [2]: 1000 to 10000 nM
IC50 [3]: 1000 to 10000 nM
IC50 [4]: 1000 to 10000 nM
IC50 (PLK1 kinase domain): < 100 nM
IC50 [5]: 1000 to 10000 nM
IC50 [6]: 1000 to 10000 nM

COC(=O)c1ccc(C(=O)OC)c(Nc2nc(Nc3ccc(NC(C)=O)cc3)ncc2[N+](=O)[O-])c1 [Example 29, Dimethyl 2-[(2-{[4-(acetylamino)phenyl]amino}-5-nitropyrimidin-4-yl)amino]terephthalate hydrochloride]
IC50 (PLK1 kinase domain): 100 to 10000 nM

COc1cc(Nc2ncc(Br)c(Nc3ccccc3C(C)=O)n2)cc(OC)c1OC [Example 11, 1-[2-({5-bromo-2-[(3,4,5-trimethoxyphenyl)amino]pyrimidin-4-yl}amino)phenylethanone hydrochloride]
IC50 (PLK1 kinase domain): < 100 nM

COC(=O)c1ccccc1Nc1nc(Nc2cc(OC)c(OC)c(OC)c2)ncc1[N+](=O)[O-] [Example 17, Methyl 2-({5-nitro-2-[(3,4,5-trimethoxyphenyl)amino]pyrimidin-4-yl}amino)benzoate hydrochloride]
IC50 (PLK1 kinase domain): < 100 nM

COc1cc(Nc2ncc([N+](=O)[O-])c(Nc3ccccc3C(=O)O)n2)cc(OC)c1OC [Example 1, 2-({5-nitro-2-[(3,4,5-trimethoxyphenyl)amino]pyrimidin-4-yl}amino)benzoic acid hydrochloride]
IC50 (PLK1 kinase domain): < 100 nM

COc1cc(Nc2nc(Nc3ccc(NC(C)=O)cc3)ncc2Br)cc(OC)c1OC [Example 28, N-[4-(5-Bromo-4-[(3,4,5-trimethoxyphenyl)amino]pyrimidin-2-yl}amino)phenyl]acetamide hydrochloride]
IC50 (PLK1 kinase domain): > 10000 nM

COc1cc(Nc2ncc(Br)c(Nc3ccccc3N3CCOCC3)n2)cc(OC)c1OC [Example 27, 5-Bromo-N^4-(2-morpholin-4-ylphenyl)-N^2-(3,4,5-trimethoxyphenyl)-pyrimidine-2,4-diamine hydrochloride]
IC50 (PLK1 kinase domain): 100 to 10000 nM

CC(=O)Nc1ccc(Nc2ncc([N+](=O)[O-])c(Nc3cccc(C)c3C(=O)O)n2)cc1 [Example 33, 2-[(2-{[4-(Acetylamino)phenyl]amino}-5-nitropyrimidin-4-yl)amino]-6-methylbenzoic acid hydrochloride]
IC50 (PLK1 kinase domain): < 100 nM

CNC(=O)c1ccccc1Nc1nc(Nc2ccc(NC(C)=O)cc2)ncc1[N+](=O)[O-] [Example 13, 2-[(2-{[4-(acetylamino)phenyl]amino}-5-nitropyrimidin-4-yl)amino]-N-methylbenzamide hydrochloride]
IC50 (PLK1 kinase domain): < 100 nM

CC(=O)Nc1ccc(Nc2ncc([N+](=O)[O-])c(Nc3ccccc3C(=O)O)n2)cc1 [Example 23, 2-[(2-{[4-(Acetylamino)phenyl]amino}-5-nitropyrimidin-4-yl)amino]benzoic acid hydrochloride]
IC50 (PLK1 kinase domain): < 100 nM

CC(=O)Nc1ccc(Nc2ncc([N+](=O)[O-])c(Nc3ccccc3C(=O)OCc3ccccc3)n2)cc1 [Example 30, Benzyl 2-[(2-{[4-(acetylamino)phenyl]amino}-5-nitropyrimidin-4-yl)amino]benzoate hydrochloride]
IC50 (PLK1 kinase domain): 100 to 10000 nM

COc1cc(Nc2ncc(C(C)=O)c(Nc3ccccc3C(=O)NC(C)(C)C)n2)cc(OC)c1OC [Example 38, N-(tert-butyl)-2-({5-methyl ketone-2-[(3,4,5-trimethoxyphenyl)amino]pyrimidin-4-yl}amino) benzamide]
IC50 (PLK1 kinase domain): < 100 nM

COc1cc(Nc2ncc([N+](=O)[O-])c(Nc3ccccc3C(N)=O)n2)cc(OC)c1OC [Example 3, 2-({5-nitro-2-[(3,4,5-trimethoxyphenyl)amino]pyrimidin-4-yl}amino)benzamide hydrochloride]
IC50 [1]: 1000 to 10000 nM
IC50 [2]: < 1000 nM
IC50 [3]: < 1000 nM
IC50 [4]: 1000 to 10000 nM
IC50 [5]: < 1000 nM
IC50 [6]: < 1000 nM

COc1cc(Nc2ncc([N+](=O)[O-])c(Nc3ccccc3C(C)=O)n2)cc(OC)c1OC [Example 35, 1-[2-({5-Nitro-2-[(3,4,5-trimethoxyphenyl)amino]pyrimidin-4-yl}amino)phenyl]ethanone hydrochloride]
IC50 (PLK1 kinase domain): < 100 nM

COc1cc(Nc2ncc([N+](=O)[O-])c(Nc3cccc4ccc(O)cc34)n2)cc(OC)c1OC [Example 37, 8-({5-Nitro-2-[(3,4,5-trimethoxyphenyl)amino]pyrimidin-4-yl}amino)-2-naphthol hydrochloride]
IC50 (PLK1 kinase domain): < 100 nM

COC(=O)c1c(C)cccc1Nc1nc(Nc2ccc(NC(C)=O)cc2)ncc1[N+](=O)[O-] [Example 31, Methyl 2-[(2-{[4-(acetylamino)phenyl]amino}-5-nitropyrimidin-4-yl)amino]-6-methylbenzoate hydrochloride]
IC50 (PLK1 kinase domain): < 100 nM

CC(=O)Nc1ccc(Nc2ncc([N+](=O)[O-])c(Nc3ccccc3C(=O)OC3CCCCC3)n2)cc1 [Example 21, Cyclohexyl 2-[(2-{[4-(acetylamino)phenyl]amino}-5-nitropyrimidin-4-yl)amino]benzoate hydrochloride]
IC50 (PLK1 kinase domain): < 100 nM

CC(=O)Nc1ccc(Nc2ncc([N+](=O)[O-])c(Nc3ccccc3C(=O)OCC(C)C)n2)cc1 [Example 32, Isobutyl 2-[(2-{[4-(acetylamino)phenyl]amino}-5-nitropyrimidin-4-yl)amino]benzoate hydrochloride]
IC50 (PLK1 kinase domain): < 100 nM
